Source: patent US12070500B2, “Use of semaphorin-4D antibodies in combination with an immune modulating therapy to inhibit tumor growth and metastasis” (Vaccinex, Inc., priority 2013, dated 2024)

Columns and labels:
Colon26 = assay: Summary of tumor regressions in Colon26 model (Example 13, FIG. 13); format: in vivo, mice; settings: summary of experiments (FIG. 13)
Description: Experimental Design. […] The experiment design of the respective experiments is summarized in the above Examples.

Colon26 tumor cells = assay: Colon26 tumor growth, combination with cyclophosphamide (Example 8); format: in vivo, Balb/c mice; settings: anti-SEMA4D 50 mg/kg IP weekly; cyclophosphamide 50 mg/kg IP days 12 and 20; endpoint 1000 mm3
Description: Experimental Design. 5×10^5 Colon26 tumor cells were implanted subcutaneously into the flank of female Balb/c mice. […] There were 20 mice per group. Tumors were measured with calipers 3×/week starting 5 days post implant. Animals were sacrificed when tumor volume reached 1000 mm3.
Tumor growth was measured by calipers and measurements were used to calculate tumor volume using the formula (w^2×l)/2, where w=width, smaller measurement, and l=length, in mm, of the tumor.
Regression is the lack of palpable tumor, defined by a tumor measuring <50 mm3 for at least two consecutive measurements.

With `O=P1(N(CCCl)CCCl)NCCCO1` (centres unmarked) [cyclophosphamide] the tumor regression (Colon26) was 10% and the “Tumor Growth Delay (TGD)” value (Colon26 tumor cells) was 96%.
